Sequences and labels used below:
B1: IL-1α: Interleukin (protein, UniProt P01583 113-271, looked up)
Interleukin-1 alpha: SAPFSFLSNVKYNFMRIIKYEFILNDALNQSIIRANDQYLTAAALHNLDEAVKFDMGAYKSSKDDAKITVILRISKTQLYVTAQDEDQPVLLKEMPEIPKTITGSETNLLFFWETHGTKNYFTSVAHPNLFIATKQDYWVCLAGGPPSITDFQILENQA
B2: GDNF: Glial cell-line Derived Neurotrophic Factor (protein, UniProt P39905 78-211, looked up)
Glial cell line-derived …: SPDKQMAVLPRRERNRQAAAANPENSRGKGRRGQRGKNRGCVLTAIHLNVTDLGLGYETKEELIFRYCSGSCDAAETTYDKILKNLSRNRRLVSDKVGQACCRPIAFDDDLSFLDDNLVYHILRKHSAKRCGCI

The subject of one test is Human neural progenitor cells expanded in EGF/bFGF/LIF (991013FBr). The test is described as follows: Importance of the various factors for TH induction. Format: cell-based. As to conditions: one factor omitted from the cocktail of Example 1, 3 days. On the procedure: Cultures of human neural progenitors established from human fetal forebrain expanded in N2 medium supplemented with EGF/bFGF/LIF or EGF/bFGF/CNTF as indicated were mechanically passaged and maintained in expansion medium for 5-7 days. The small spheres were then plated on glass coverslips coated with poly-L-lysine (PLL, 100 μg/ml) and laminin (50 μg/ml) at a cell density of 100.000 cells/cm^2 in N2 medium containing 1% FBS for “default differentiation” or in N2 medium supplemented with aFGF (100 ng/ml), BDNF (50 ng/ml), forskolin (25 μM), DA (10 μM), TPA (100 nM), dbcAMP (100 μM), GDNF (20 ng/ml), IGFI (100 ng/ml), IL-1α (200 pg/ml). N2 medium consists of DMEM:F12 (1:1) supplemented with N2 (insulin, transferrin, selenium, progesterone and putrescine), 0.6% glucose and 5 mM HEPES. After 3 days incubation, cells were fixed in 4% paraformaldehyde in PBS for 20 min at room temperature. The cells were washed three times with PBS, followed by overnight incubation with primary antibody (rabbit anti-TH, PelFreez 1:100 or Chemicon 1:800) diluted in PBS incubation buffer which contained 10% normal goat serum, 0.3% Triton X-100 (Sigma) and 1% BSA at 4° C. in a humidified chamber. The cells were washed with PBS, and incubated for 1 hr at room temperature in the dark with secondary antibody (anti-rabbit Cy3, (Chemicon 1:500) diluted in incubation buffer. After washing with PBS, nuclei were counterstained with DAPI or Hoechst 33342. Negative controls (omission of the primary antibody) were included in each experiment.
To quantify the percentage of TH cells, cells were counted in at least three fields from three to six independent coverslips randomly chosen using a 20× objective. The number of TH-immunoreactive cells in each field was counted. The total cell number was obtained by counting nuclei counterstained with DAPI or Hoechst 33342.
Human neural progenitor cells expanded in EGF/bFGF/LIF (991013FBr) cells were seeded as small spheres (5 days after trituration to single cell suspension) on PLL/laminin coated 12 mm coverslips at a cell density of 100.000 cells/cm^2 in N2 medium containing different combinations of the factors described in Example 1. After incubation for 3 days, cells were fixed in 4% PFA and immunostained for TH as described in Example 1.
For “IGF-I: Insulins (IGF-I, IGF-II, insulin)”, the “effect of omitting the factor from the cocktail on induction of TH positive cells” value (“effect of omitting the factor” for short) was “did not affect induction of TH positive cells”.
For BDNF: Brain Derived Neurotrophic Factor, the “effect of omitting the factor” value is listed as “did not affect induction of TH positive cells”.
Turning to `NCCc1ccc(O)c(O)c1` [dopamine, reference compound], the “effect of omitting the factor” value is on record as “did not affect induction of TH positive cells”.
In the case of B1, the “effect of omitting the factor” value is “did not affect induction of TH positive cells”.
Take B2: the “effect of omitting the factor” value is on record as “did not affect induction of TH positive cells”.

The same test, now with this note: same concentration (100 ng/ml), 3 days.
Consider “FGF-2/bFGF: basic fibroblast growth factor”, for which the “effect of replacing FGF-1/aFGF in the cocktail on TH immunoreactive cells” value is “without any effect on numbers or morphology of TH immunoreactive cells”.

The values above are taken from patent US20040247571A1, “Neural cells expressing tyrosine hydroxylase” (priority 2001, published 2004).
